Laboratory results taken from patent US20240342318A1, “CONJUGATES COMPRISING COVALENT BINDERS FOR TARGETING INTRACELLULAR PROTEINS” (RayzeBio, Inc., priority 2021, published 2024).
pKd: −log10 of the molar value. Read-outs that look alike come from different tables or passages of the source.

Assays:
EGFR (WT) = target: T1, EGFR (WT) (Homo sapiens, UniProt P00533); assay: In vitro kinase binding assay (phage/DNA-tagged kinase, affinity beads, qPCR), wild-type EGFR
T1 construct: The EGFR constructs span amino acids R669 to V1011 of the EGFR protein; T7 phage display fusion (kinase-tagged T7 phage) or DNA tag for qPCR; made in house; host or cells: E. coli (BL21-derived) infected with T7 phage for most assays; remaining kinases in HEK-293
Procedure: (§1) For most assays, kinase-tagged T7 phage strains were prepared in an E. coli host derived from the BL21 strain. For the EGFR assays, wild-type EGFR, or mutant EGFR (T790M, L858R) were utilized. The EGFR constructs span amino acids R669 to V1011 of the EGFR protein. E. coli were grown to log-phase and infected with T7 phage and incubated with shaking at 32° C. until lysis. The lysates were centrifuged and filtered to remove cell debris. The remaining kinases were produced in HEK-293 cells and subsequently tagged with DNA for qPCR detection. Streptavidin-coated magnetic beads were treated with biotinylated small molecule ligands for 30 minutes at room temperature to generate affinity resins for kinase assays. The liganded beads were blocked with excess biotin and washed with blocking buffer (SeaBlock (Pierce), 1% BSA, 0.05% Tween 20, 1 mM DTT) to remove unbound ligand and to reduce non-specific binding. Binding reactions were assembled by combining kinases, liganded affinity beads, and test compounds in 1× binding buffer (20% SeaBlock, 0.17×PBS, 0.05% Tween 20, 6 mM DTT). Test compounds were prepared as 111× stocks in 100% DMSO. Kds were determined using an 11-point 3-fold compound dilution series with three DMSO control points. All compounds for Kd measurements are distributed by acoustic transfer (non-contact dispensing) in 100% DMSO. The compounds were then diluted directly into the assays such that the final concentration of DMSO was 0.9%. All reactions performed in polypropylene 384-well plate. Each was a final volume of 0.02 ml. The assay plates were incubated at room temperature with shaking for 1 hour and the affinity beads were washed with wash buffer (lx PBS, 0.05% Tween 20). The beads were then re-suspended in elution buffer (lx PBS, 0.05% Tween 20, 0.5 μM nonbiotinylated affinity ligand) and incubated at room temperature with shaking for 30 minutes. The kinase concentration in the eluates was measured by qPCR.

EGFR (L858R, T790M) = target: T2, EGFR (L858R, T790M) (Homo sapiens, UniProt P00533, L858R/T790M); assay: In vitro kinase binding assay (phage/DNA-tagged kinase, affinity beads, qPCR), mutant EGFR; details: for Binding Affinity ratio of WT/DM: ratio of Kd EGFR (WT) to Kd EGFR (L858R, T790M)
T2 construct: The EGFR constructs span amino acids R669 to V1011 of the EGFR protein; T7 phage display fusion (kinase-tagged T7 phage) or DNA tag for qPCR; made in house; host or cells: E. coli (BL21-derived) infected with T7 phage for most assays; remaining kinases in HEK-293
Procedure: as §1

[1] = wild-type EGFR construct R669 to V1011, 11-point 3-fold dilution series, 1 hour at room temperature, read-out: EGFR (WT) Kd
[2] = mutant EGFR (T790M, L858R) construct R669 to V1011, 11-point 3-fold dilution series, 1 hour at room temperature, read-out: EGFR (L858R, T790M) Kd

T1 sequence (P00533 669-1011): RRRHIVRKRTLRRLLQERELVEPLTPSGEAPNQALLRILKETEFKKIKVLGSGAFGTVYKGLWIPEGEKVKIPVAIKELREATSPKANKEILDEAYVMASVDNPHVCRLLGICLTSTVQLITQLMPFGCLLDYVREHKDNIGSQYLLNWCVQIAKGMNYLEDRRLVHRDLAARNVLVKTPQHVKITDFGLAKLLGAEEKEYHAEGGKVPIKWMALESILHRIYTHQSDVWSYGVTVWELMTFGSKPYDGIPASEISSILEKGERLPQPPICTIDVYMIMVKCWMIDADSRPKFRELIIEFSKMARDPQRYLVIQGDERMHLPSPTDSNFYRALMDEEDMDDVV
T2 sequence (P00533 669-1011 T790M/L858R): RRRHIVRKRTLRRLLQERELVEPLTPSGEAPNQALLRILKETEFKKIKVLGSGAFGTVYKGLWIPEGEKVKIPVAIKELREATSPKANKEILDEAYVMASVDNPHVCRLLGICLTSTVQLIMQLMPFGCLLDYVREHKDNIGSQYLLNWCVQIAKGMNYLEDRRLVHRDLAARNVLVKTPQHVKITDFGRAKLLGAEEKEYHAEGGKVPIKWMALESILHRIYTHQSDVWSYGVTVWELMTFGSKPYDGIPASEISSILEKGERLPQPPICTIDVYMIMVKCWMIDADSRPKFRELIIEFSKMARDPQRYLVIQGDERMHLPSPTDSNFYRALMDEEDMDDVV

pKd (EGFR (WT); [1])	pKd (EGFR (L858R, T790M); [2])	Structure (SMILES)	pKd (EGFR (WT))	pKd (EGFR (L858R, T790M))	Binding Affinity ratio of WT/DM (EGFR (L858R, T790M))
		C=CC(=O)N[C@@H]1CN(c2nc(Nc3cn(CCCCCCCNC(=O)CN4CCN5CCN6CCN(CC4)CC(=O)[O][Lu]([O]C(=O)C5)[O]C(=O)C6)nc3OC)c3ncn(C)c3n2)C[C@H]1F [Compound 003-Lu, N-[(3R,4R)-4-fluoro-1-[6-[[3-methoxy-1-[7-[[2-(3,16,19-trioxo-2,17,18-trioxa-5,8,11,14-tetraza-1λ3-lutetatricyclo[9.6.3.25,14]docosan-8-yl)acetyl]amino]heptyl]pyrazol-4-yl]amino]-9-methyl-purin-2-yl]pyrrolidin-3-yl]prop-2-enamide]	7.00 to 8.70	> 9.00	A (4 < A ≤ 25)
5.60 to 6.00	7.60 to 9.00	C=CC(=O)N[C@@H]1CN(c2nc(Nc3cn(CCCCCNC(=O)CN4C[C@H](CC)N(CC(=O)O)C[C@H](CC)N(CC(=O)O)C[C@H](CC)N(CC(=O)O)C[C@@H]4CC)nc3CC)c3ncn(C(C)(C)C)c3n2)C[C@H]1F [Compound 006, 2,2′,2″-((2S,5S,8S,11S)-10-(2-((5-(4-((2-((3R,4R)-3-acrylamido-4-fluoropyrrolidin-1-yl)-9-(tert-butyl)-9H-purin-6-yl)amino)-3-ethyl-1H-pyrazol-1-yl)pentyl)amino)-2-oxoethyl)-2,5,8,11-tetraethyl-1,4,7,10-tetraazacyclododecane-1,4,7-triyl)triacetic acid]			B (25 < B ≤ 100)
6.00 to 7.00	7.60 to 9.00	C=CC(=O)N1C[C@H](COc2nc(Nc3cnn(CCCCCNC(=O)CN4CCN(CC(=O)O)CCN(CC(=O)O)CCN(CC(=O)O)CC4)c3)nc3[nH]cc(Cl)c23)[C@@H](OC)C1 [Compound 007, 2,2′,2″-(10-(2-((5-(4-((4-(((3R,4R)-1-acryloyl-4-methoxypyrrolidin-3yl)methoxy)-5-chloro-7H-pyrrolo[2,3-d]pyrimidin-2-yl)amino)-1H-pyrazol-1-yl)pentyl)amino)-2-oxoethyl)-1,4,7,10-tetraazacyclododecane-1,4,7-triyl)triacetic acid]			C (100 < C ≤ 1000)
7.00 to 8.70	> 9.00	C=CC(=O)N[C@@H]1CN(c2nc(Nc3cn(CCCCCCCNC(=O)CN4CCN(CC(=O)O)CCN(CC(=O)O)CCN(CC(=O)O)CC4)nc3OC)c3ncn(C)c3n2)C[C@H]1F [Compound 003, 2-[4,7-bis(carboxymethyl)-10-[2-[7-[4-[[2-[(3R,4R)-3-fluoro-4-(prop-2-enoylamino)pyrrolidin-1-yl]-9-methyl-purin-6-yl]amino]-3-methoxy-pyrazol-1-yl]heptylamino]-2-oxo-ethyl]-1,4,7,10-tetrazacyclododec-1-yl]acetic acid]			A (4 < A ≤ 25)
		C=CC(=O)N1C[C@H](COc2nc(Nc3cnn(CCCCCNC(=O)CN4CCN5CCN6CCN(CC4)CC(=O)[O][Lu]([O]C(=O)C5)[O]C(=O)C6)c3)nc3[nH]cc(Cl)c23)[C@@H](OC)C1 [Compound 007-Lu, N-[5-[4-[[5-chloro-4-[[(3R,4R)-4-methoxy-1-prop-2-enoyl-pyrrolidin-3-yl]methoxy]-7H-pyrrolo [2,3-d]pyrimidin-2-yl]amino]pyrazol-1-yl]pentyl]-2-(3,16,19-trioxo-2,17,18-trioxa-5,8,11,14-tetraza-1λ3-lutetatricyclo[9.6.3.25,14]docosan-8-yl)acetamide]	6.00 to 7.00	> 9.00	C (100 < C ≤ 1000)
		C=CC(=O)N[C@@H]1CN(c2nc(Nc3cn(CCCCCNC(=O)CN4CCN5CCN6CCN(CC4)CC(=O)[O][Lu]([O]C(=O)C5)[O]C(=O)C6)nc3OC)c3ncn(C(C)(C)C)c3n2)C[C@H]1F [Compound 004-Lu, N-[(3R,4R)-1-[9-tert-butyl-6-[[3-methoxy-1-[5-[[2-(3,16,19-trioxo-2,17,18-trioxa-5,8,11,14-tetraza-1λ3-lutetatricyclo[9.6.3.25,14]docosan-8-yl)acetyl]amino]pentyl]pyrazol-4yl]amino]purin-2-yl]-4-fluoro-pyrrolidin-3-yl]prop-2-enamide]	7.00 to 8.70	> 9.00	B (25 < B ≤ 100)
6.00 to 7.00	7.60 to 9.00	C=CC(=O)N[C@@H]1CN(c2nc(Nc3cn(CCCCCNC(=O)CN4CCN(CC(=O)O)CCN(CC(=O)O)CCN(CC(=O)O)CC4)nc3OC)c3ncn(C(C)(C)C)c3n2)C[C@H]1F [Compound 004, 2-[4-[2-[5-[4-[[9-tert-butyl-2-[(3R,4R)-3-fluoro-4-(prop-2-enoylamino)pyrrolidin-1-yl]purin-6-yl]amino]-3-methoxy-pyrazol-1-yl]pentylamino]-2-oxo-ethyl]-7,10-bis(carboxymethyl)-1,4,7,10-tetrazacyclododec-1-yl]acetic acid]			B (25 < B ≤ 100)
		C=CC(=O)N[C@@H]1CN(c2nc(Nc3cn(CCCCCNC(=O)CN4CCN5CCN6CCN(CC4)CC(=O)[O][Lu]([O]C(=O)C5)[O]C(=O)C6)nc3CC)c3ncn(C(C)(C)C)c3n2)C[C@H]1F [Compound 005-Lu, N-[(3R,4R)-1-[9-tert-butyl-6-[[3-ethyl-1-[5-[[2-(3,16,19-trioxo-2,17,18-trioxa-5,8,11,14-tetraza-1λ3-lutetatricyclo[9.6.3.25,14]docosan-8-yl)acetyl]amino]pentyl]pyrazol-4-yl]amino]purin-2-yl]-4-fluoro-pyrrolidin-3-yl]prop-2-enamide]	5.60 to 6.00	7.60 to 9.00	C (100 < C ≤ 1000)
		C=CC(=O)N[C@@H]1CN(c2nc(Nc3cn(CCCNC(=O)CN4CCN5CCN6CCN(CC4)CC(=O)[O][Lu]([O]C(=O)C5)[O]C(=O)C6)nc3OC)c3ncn(C)c3n2)C[C@H]1F [Compound 001-Lu, N-[(3R,4R)-4-fluoro-1-[6-[[3-methoxy-1-[3-[[2-(3,16,19-trioxo-2,17,18-trioxa-5,8,11,14-tetraza-1λ3-lutetatricyclo[9.6.3.25,14]docosan-8-yl)acetyl]amino]propyl]pyrazol-4-yl]amino]-9-methyl-purin-2-yl]pyrrolidin-3-yl]prop-2-enamide]	7.00 to 8.70	> 9.00	A (4 < A ≤ 25)
5.60 to 6.00	7.60 to 9.00	C=CC(=O)N[C@@H]1CN(c2nc(Nc3cn(CCCCCNC(=O)CN4CCN(CC(=O)O)CCN(CC(=O)O)CCN(CC(=O)O)CC4)nc3CC)c3ncn(C(C)(C)C)c3n2)C[C@H]1F [Compound 005, 2-[4-[2-[5-[4-[[9-tert-butyl-2-[(3R,4R)-3-fluoro-4-(prop-2-enoylamino)pyrrolidin-1-yl]purin-6-yl]amino]-3-ethyl-pyrazol-1-yl]pentylamino]-2-oxo-ethyl]-7,10-bis(carboxymethyl)-1,4,7,10-tetrazacyclododec-1-yl]acetic acid]			C (100 < C ≤ 1000)
		C=CC(=O)N[C@@H]1CN(c2nc(Nc3cn(CCCCCNC(=O)CN4CCN5CCN6CCN(CC4)CC(=O)[O][Lu]([O]C(=O)C5)[O]C(=O)C6)nc3OC)c3ncn(C)c3n2)C[C@H]1F [Compound 002-Lu, N-[(3R,4R)-4-fluoro-1-[6-[[3-methoxy-1-[5-[[2-(3,16,19-trioxo-2,17,18-trioxa-5,8,11,14-tetraza-1λ3-lutetatricyclo[9.6.3.25,14]docosan-8-yl)acetyl]amino]pentyl]pyrazol-4-yl]amino]-9-methyl-purin-2-yl]pyrrolidin-3-yl]prop-2-enamide]	7.00 to 8.70	> 9.00	A (4 < A ≤ 25)

Structure (SMILES)	pKd (EGFR (WT); [1])	pKd (EGFR (L858R, T790M); [2])	pKd (EGFR (WT))	pKd (EGFR (L858R, T790M))	Binding Affinity ratio of WT/DM (EGFR (L858R, T790M))
C=CC(=O)N[C@@H]1CN(c2nc(Nc3cn(CCCCCNC(=O)CN4CCN(CC(=O)O)CCN(CC(=O)O)CCN(CC(=O)O)CC4)nc3OC)c3ncn(C)c3n2)C[C@H]1F [Compound 002, 2-[4,7-bis(carboxymethyl)-10-[2-[5-[4-[[2-[(3R,4R)-3-fluoro-4-(prop-2-enoylamino)pyrrolidin-1-yl]-9-methyl-purin-6-yl]amino]-3-methoxy-pyrazol-1-yl]pentylamino]-2-oxo-ethyl]-1,4,7,10-tetrazacyclododec-1-yl]acetic acid]	7.00 to 8.70	> 9.00			
